Experiments:
Type in all cases: cell-based
human CXCR4 = target: T1, human CXCR4 (Homo sapiens, UniProt P61073); experiment: Functional FLIPR assay (block of SDF-1 alpha induced [Ca2+]i change); settings: HEK-293 cells with human CXCR4 and Gqi5 BacMam; antagonism of SDF-1 alpha; read-out: Functional assay (pIC50) (converted)
T1 construct: expressed in transfected cells; host or cells: HEK-293 cells (stably expressing human macrophage scavenger receptor class A type 1), transduced with human CXCR4 BacMam and Gqi5 BacMam baculoviruses
T1 sequence (P61073 whole entry): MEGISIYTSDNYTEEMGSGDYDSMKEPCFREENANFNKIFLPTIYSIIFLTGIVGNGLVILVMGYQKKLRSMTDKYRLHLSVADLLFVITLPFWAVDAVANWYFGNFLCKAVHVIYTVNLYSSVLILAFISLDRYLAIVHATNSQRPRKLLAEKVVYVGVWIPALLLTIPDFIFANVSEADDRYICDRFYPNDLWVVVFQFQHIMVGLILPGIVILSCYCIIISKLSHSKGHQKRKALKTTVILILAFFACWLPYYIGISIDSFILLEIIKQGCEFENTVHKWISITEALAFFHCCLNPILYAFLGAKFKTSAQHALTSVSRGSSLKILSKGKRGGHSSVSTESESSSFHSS
Method: Human embryonic kidney (HEK-293) cells were maintained and harvested as described above. Cells were plated in 96-well, black clear bottom, poly-lysine coated plates at a concentration of 40,000 cells per well in a final volume of 100 ul containing human CXCR4 BacMam (MOI=25) and Gqi5 BacMam (MOI=12.5). The cells were incubated at 37° C., 5% CO2, 95% humidity for 24 h to allow for protein expression.
After the required incubation time the cells were washed once with 50 ul of fresh serum-free DMEM/F12 media containing probenicid. 50 ul of dye solution was then added to the cells (Calcium Plus Assay Kit Dye; Molecular Devices) was dissolved in 200 ml of the above probenicid/BSA containing media and incubated for 1 h. Cell plates were transferred to a Fluorometric Imaging Plate Reader (FLIPR). Upon addition the effect of the compounds on the change in [Ca^2+]i was examined to determine if the compounds were agonists or antagonists (ability to block SDF-1 alpha activity) at the CXCR4 receptor. IC50 values are determined and pKb values are calculated using the Leff and Dougall equation: KB=IC50/((2+([agonist]/EC50ˆb)ˆ1/b−1) Where IC50 is that defined by the antagonist concentration-response curve [agonist] is the EC80 concentration of agonist used EC50 is that defined by the agonist concentration-response curve b is the slope of the agonist concentration-response curve.

[1] = tested on: HOS (hCXCR4/hCCR5/hCD4/pHIV-LTR-luciferase) cells and HEK-293 cells expressing HIV-1 gp160 (HXB2 strain); experiment: Cell/cell fusion assay (luciferase); settings: Homo sapiens, HEK293; 24 h, luciferase readout; read-out: Fusion assay (pIC50) (converted)
Source text: The complete coding sequences of HIV-1 tat (GenBank Accession No. X07861) and rev (GenBank Accession No. M34378) were cloned into pcDNA3.1 expression vectors containing G418 and hygromycin resistance genes, respectively. The complete coding sequence of the HIV-1 (HXB2 strain) gp160 envelope gene (nucleotide bases 6225-8795 of GenBank Accession No. K03455) was cloned into plasmid pCRII-TOPO. The three HIV genes were additionally inserted into the baculovirus shuttle vector, pFastBacMam1, under the transcriptional control of the CMV promoter. A construction of the pHIV-I LTR containing mutated NFkB sequences linked to the luciferase reporter gene was prepared by digesting pcDNA3.1, containing the G418 resistance gene, with Nru I and Bam HI to remove the CMV promoter. LTR-luc was then cloned into the Nru I/Bam HI sites of the plasmid vector. Plasmid preparations were performed after the plasmids were amplified in Escherichia coli strain DH5-alpha. The fidelity of the inserted sequences was confirmed by double-strand nucleotide sequencing using an ABI Prism Model 377 automated sequencer.
BacMam Baculovirus Generation
Recombinant BacMam baculoviruses were constructed from pFastBacMam shuttle plasmids by using the bacterial cell-based Bac-to-Bac system. Viruses were propagated in Sf9 (Spodoptera frugiperda) cells cultured in Hink's TNM-FH Insect media supplemented with 10% (v/v) fetal bovine serum and 0.1% (v/v) pluronic F-68 according to established protocols.
Human osteosarcoma (HOS) cells that naturally express human CXCR4 were transfected with human CCR5, human CD4 and the pHIV-LTR-luciferase plasmid using FuGENE 6 transfection reagent. Single cells were isolated and grown under selection condition in order to generate a stable HOS (hCXCR4/hCCR5/hCD4/pHIV-LTR-luciferase) clonal cell line. The cells were maintained in Dulbeccos modified Eagles media supplemented with 10% fetal calf serum (FCS), G418 (400 ug/ml), puromycin (1 ug/ml), mycophenolic acid (40 ug/ml), xanthine (250 ug/ml) and hypoxanthine (13.5 ug/ml) to maintain a selection pressure for cells expressing the LTR-luciferase, hCCR5 and hCD4, respectively. Human embryonic kidney (HEK-293) cells stably transfected to express the human macrophage scavenging receptor (Class A, type 1; GenBank Accession No. D90187), were maintained in DMEM/F-12 media (1:1) supplemented with 10% FCS and 1.5 ug/ml puromycin. The expression of this receptor by the HEK-293 cells enhances their ability to stick to tissue culture treated plasticware.
Transduction of HEK-293 cells
HEK-293 cells were harvested using enzyme-free cell dissociation buffer. The cells were resuspended in DMEM/F-12 media supplemented with 10% FCS and 1.5 ug/ml and counted. Tranductions were performed by direct addition of BacMam baculovirus containing insect cell media to cells. The cells were simultaneously transduced with BacMam baculovirus expressing HIV-1 tat, HIV-1 rev and HIV-1 gp160 (from the HXB2 HIV strain). Routinely an MOI of 10 of each virus was added to the media containing the cells. 2 mM butyric acid was also added to the cells at this stage to increase protein expression in transduced cells. The cells were subsequently mixed and seeded into a flask at 30 million cells per T225. The cells were incubated at 37° C., 5% CO2, 95% humidity for 24 h to allow for protein expression.
Cell/Cell Fusion Assay Format
HEK and HOS cells were harvested in DMEM/F-12 media containing 2% FCS and DMEM media containing 2% FCS, respectively, with no selection agents added. Compounds were plated as 1 ul spots in 100% DMSO on a 96-well CulturPlate plates. HOS cells (50 ul) were added first to the wells, followed immediately by the HEK cells (50 ul). The final concentration of each cell type was 20,000 cells per well. Following these additions, the cells were returned to a tissue culture incubator (37° C.; 5% CO2/95% air) for an additional 24 h.
Measurement of Luciferase Production […]

[2] = Compound cytotoxicity in the absence of virus (CellTiter-Glo); settings: human; HOS cells, no virus; read-out: Cytotox (pIC50) (converted)
Method: (§1) Compounds were profiled against two HIV-1 viruses, the M-tropic (CCR5 utilizing) Ba-L strain and the T-tropic (CXCR4 utilizing) IIIB strain. Both viruses were propagated in human peripheral blood lymphocytes. Compounds were tested for there ability to block infection of the HOS cell line (expressing hCXCR4/hCCR5/hCD4/pHIV-LTR-luciferase) by either HIV-1 Ba-L or HIV-1 IIIB. Compound cytotoxicity was also examined in the absence of virus addition.
(§2) HOS cells (expressing hCXCR4/hCCR5/hCD4/pHIV-LTR-luciferase) were harvested and diluted in Dulbeccos modified Eagles media supplemented with 2% FCS and non-essential amino acid to a concentration of 60,000 cells/ml. The cells were plated into 96-well plates (100 ul per well) and the plates were placed in a tissue culture incubator (37° C.; 5% CO2/95% air) for a period of 24 h.
(§3) Subsequently, 50 ul of the desired drug solution (4 times the final concentration) was added to each well and the plates were returned to the tissue culture incubator (37° C.; 5% CO2/95% air) for 1 h. Following this incubation 50 ul of diluted virus was added to each well (approximately 2 million RLU per well of virus). The plates were returned to the tissue culture incubator (37° C.; 5% CO2/95% air) and were incubated for a further 96 h.
(§4) Following this incubation the endpoint for the virally infected cultures was quantified following addition of Steady-Glo Luciferase assay system reagent (Promega, Madison, Wis.). Cell viability or non-infected cultures was measured using a CellTiter-Glo luminescent cell viability assay system (Promega, Madison, Wis.). All luminescent readouts are performed on a Topcount luminescence detector (Packard, Meridien, Conn.).

HIV-1 IIIB = experiment: HOS HIV-1 infectivity assay, IIIB strain; settings: Human immunodeficiency virus 1; HOS cells, HIV-1 IIIB (T-tropic, CXCR4 utilizing), 96 h; read-out: HOS (3B)
Method: HOS HIV-1 Infectivity Assay
as §1
HOS HIV-1 Infectivity Assay Format
as §2, §3, §4

HIV = experiment: HOS HIV infectivity assay (Table 2, strain not given); settings: Human immunodeficiency virus 1, read-out: Activity Level
Procedure, shortened: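 HOS cells expressing hCXCR4/hCCR5/hCD4 and an HIV-LTR-luciferase reporter were preincubated with compound for 1 h in DMEM/2% FCS. They were then infected with HIV-1 Ba-L or IIIB (about 2 million RLU/well) for 96 h at 37° C. Infection was read by luciferase luminescence, and viability in uninfected cultures by CellTiter-Glo.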

## CC(C)N1CCN(c2cccc3nc(CN(CC(F)(F)F)C4CCCc5cccnc54)cn23)CC1 (stereo not drawn) [Example 17, N-({5-[4-(1-Methylethyl)-1-piperazinyl]imidazo[1,2-a]pyridin-2-yl}methyl)-N-(2,2,2-trifluoroethyl)-5,6,7,8-tetrahydro-8-quinolinamine]
Human CXCR4
  IC50: 8.91 nM
[1]
  IC50: 2140 nM
[2]
  IC50 at 96 h: > 100000 nM
HIV-1 IIIB
  IC50: 300 nM
HIV
  IC50: 100 to 500 nM

## CN(C)CCN(C)c1cccc2nc(CN(C)C3CCCc4cccnc43)cn12 (stereo not drawn) [Example 11, N,N,N′-Trimethyl-N′-(2-{[methyl(5,6,7,8-tetrahydro-8-quinolinyl)amino]methyl}imidazo[1,2-a]pyridin-5-yl)-1,2-ethanediamine]
Human CXCR4
  IC50: 33.9 nM
[1]
  IC50: 67.6 nM
[2]
  IC50 at 96 h: > 100000 nM
HIV-1 IIIB
  IC50: 32 nM
HIV
  IC50: < 100 nM

## CC(C)N(Cc1cn2c(N3CCN(C)CC3)cccc2n1)C1CCCc2cccnc21 (stereo not drawn) [Example 14, N-(1-Methylethyl)-N-{[5-(4-methyl-1-piperazinyl)imidazo[1,2-a]pyridin-2-yl]methyl}-5,6,7,8-tetrahydro-8-quinolinamine]
Human CXCR4
  IC50: 2 nM
[1]
  IC50: 21.9 nM
[2]
  IC50 at 96 h: > 100000 nM
HIV-1 IIIB
  IC50: 13 nM
HIV
  IC50: < 100 nM

## CC1CN(c2cccc3nc(CN(C)C4CCCc5cccnc54)cn23)CC(C)N1 (stereo not drawn) [Example 12, N-{[5-(3,5-Dimethyl-1-piperazinyl)imidazo[1,2-a]pyridin-2-yl]methyl}-N-methyl-5,6,7,8-tetrahydro-8-quinolinamine]
Human CXCR4
  IC50: 28.2 nM
[1]
  IC50: 166 nM
[2]
  IC50 at 96 h: > 100000 nM
HIV-1 IIIB
  IC50: 87 nM
HIV
  IC50: < 100 nM

## CC(C)N1CCN(c2cccc3nc(CN(C)C4CCCc5cccnc54)cn23)CC1 (stereo not drawn) [Example 8, N-Methyl-N-({5-[4-(1-methylethyl)-1-piperazinyl]imidazo[1,2-a]pyridin-2-yl}methyl)-5,6,7,8-tetrahydro-8-quinolinamine]
Human CXCR4
  IC50: 9.77 nM
[1]
  IC50: 22.4 nM
[2]
  IC50 at 96 h: > 100000 nM
HIV-1 IIIB
  IC50: 16 nM
HIV
  IC50: < 100 nM

## CN(C)Cc1ccc(-c2cccc3nc(CN(C)C4CCCc5cccnc54)cn23)cc1 (stereo not drawn) [Example 18, N-[(5-{4-[(Dimethylamino)methyl]phenyl}imidazo[1,2-a]pyridin-2-yl)methyl]-N-methyl-5,6,7,8-tetrahydro-8-quinolinamine]
Human CXCR4
  IC50: 38.9 nM
[1]
  IC50: 148 nM
[2]
  IC50 at 96 h: > 100000 nM
HIV-1 IIIB
  IC50: 65 nM
HIV
  IC50: < 100 nM

## CN(Cc1cn2c(-c3ccncc3)cccc2n1)C1CCCc2cccnc21 (stereo not drawn) [Example 19, N-Methyl-N-{[5-(4-pyridinyl)imidazo[1,2-a]pyridin-2-yl]methyl}-5,6,7,8-tetrahydro-8-quinolinamine]
Human CXCR4
  IC50: 20.4 nM
[1]
  IC50: 3160 nM
[2]
  IC50 at 96 h: > 100000 nM
HIV-1 IIIB
  IC50: 280 nM
HIV
  IC50: 100 to 500 nM

## CN(Cc1cn2c(N3CCN(C(=O)OC(C)(C)C)CC3)cccc2n1)C1CCCc2cccnc21 (stereo not drawn) [Example 9, 1,1-Dimethylethyl 4-(2-{[methyl(5,6,7,8-tetrahydro-8-quinolinyl)amino]methyl}imidazo[1,2-a]pyridin-5-yl)-1-piperazinecarboxylate]
Human CXCR4
  IC50: 363 nM
[1]
  IC50: 912 nM
[2]
  IC50 at 96 h: > 100000 nM
HIV-1 IIIB
  IC50: 300 nM

## CC1CN(c2cccc3nc(CN(C)C4CCCc5cccnc54)cn23)CC(C)N1C (stereo not drawn) [Example 13, N-Methyl-N-{[5-(3,4,5-trimethyl-1-piperazinyl)imidazo[1,2-a]pyridin-2-yl]methyl}-5,6,7,8-tetrahydro-8-quinolinamine]
Human CXCR4
  IC50: 18.2 nM
[1]
  IC50: 77.6 nM
[2]
  IC50 at 96 h: > 100000 nM
HIV-1 IIIB
  IC50: 62 nM
HIV
  IC50: < 100 nM

## CN(Cc1cn2c(N3CCNCC3)cccc2n1)C1CCCc2cccnc21 (stereo not drawn) [Example 10, N-Methyl-N-{[5-(1-piperazinyl)imidazo[1,2-a]pyridin-2-yl]methyl}-5,6,7,8-tetrahydro-8-quinolinamine]
Human CXCR4
  IC50: 6.92 nM
[1]
  IC50: 17.8 nM
[2]
  IC50 at 96 h: > 100000 nM
HIV-1 IIIB
  IC50: 20 nM
HIV
  IC50: < 100 nM

## CN1CCN(c2cccc3nc(CN(CC(F)(F)F)C4CCCc5cccnc54)cn23)CC1 (stereo not drawn) [Example 16, N-{[5-(4-Methyl-1-piperazinyl)imidazo[1,2-a]pyridin-2-yl]methyl}-N-(2,2,2-trifluoroethyl)-5,6,7,8-tetrahydro-8-quinolinamine]
Human CXCR4
  IC50: 4.37 nM
[1]
  IC50: 417 nM
[2]
  IC50 at 96 h: > 100000 nM
HIV-1 IIIB
  IC50: 145 nM
HIV
  IC50: 100 to 500 nM
